Assay results published in patent US20020028929A1, “Estradiol derivative and immunoassay using the same” (priority 2000, published 2002).

test system: antiserum RY725 (Rabbit antiserum obtained in Example 1-(1)); assay: ELISA system for 17β-estradiol with biotinylated estradiol derivative 2 as labeled compound (standard curve, cross-reactivity test); type: binding; conditions: relative to 17β-estradiol (calculated as 100%), labeled compound biotinylated estradiol derivative 2
Experimental: (1) An ELISA system for 17β-estradiol using the derivative of the invention as a labeled compound was prepared in the following manner.
(a) 100 μL of a standard solution or a sample is pipetted into each well of the 96-well plate, followed by addition of 50 μL of the labeled compound (0.2 ng/mL) comprising the biotinylated estradiol derivative of the invention and 50 μL of the antiserum (×32000);
(b) the reaction is allowed to proceed at 4° C. overnight (for 18-20 hours);
(§1) (c) all the wells are washed with the wash solution 4 times;
(d) the reaction is allowed to proceed using a microplate shaker at room temperature for 2 hours;
(e) all the wells are washed with the wash solution 4 times;
(f) […] of the substrate is added;
(g) the reaction is allowed to proceed at room temperature for 20 minutes;
(h) 100 μL of the enzyme reaction stop solution is pipetted into each well;
(i) absorbance at 450 nm is measured with a microplate autoreader.
The specifity of the 17β-estradiol ELISA system was assessed in the following manner.

Row | Compound | Cross-reactivity (%)
1 | C[C@]12CC[C@@H]3c4ccc(O)cc4CC[C@H]3[C@@H]1CC[C@@H]2O[C@@H]1O[C@H](C(=O)O)[C@@H](O)[C@H](O)[C@H]1O [β-Estradiol 17-(β-D-glucronide)] | 0.00
2 | C[C@]12CC[C@@H]3c4ccc(O)cc4CC[C@H]3[C@@H]1CC[C@@H]2O [17β-Estradiol] | 100.00
3 | C#C[C@]1(O)CC[C@H]2[C@@H]3CCc4cc(OC)ccc4[C@H]3CC[C@@]21C [Mestranol] | 0.14
4 | CC(=O)[C@H]1CC[C@H]2[C@@H]3CCC4=CC(=O)CC[C@]4(C)[C@H]3CC[C@]12C [Progesteron] | 0.01
5 | C[C@]12CC[C@@H]3c4ccc(OS(=O)(=O)O)cc4CC[C@H]3[C@@H]1CC[C@@H]2O[C@@H]1O[C@H](C(=O)O)[C@@H](O)[C@H](O)[C@H]1O [β-Estradiol 3-sulfate 17-glucronide] | 0.00
6 | C[C@]12CC[C@@H]3c4ccc(O)cc4CC[C@H]3[C@@H]1C[C@@H](O)[C@@H]2O [Estriol] | 0.16
7 | C[C@]12CC[C@@H]3c4ccc(O[C@@H]5O[C@H](C(=O)O)[C@@H](O)[C@H](O)[C@H]5O)cc4CC[C@H]3[C@@H]1CC[C@@H]2O [β-Estradiol 3-(β-D-glucronide)] | 37.44
8 | C#C[C@]1(O)CC[C@H]2[C@@H]3CCc4cc(O)ccc4[C@H]3CC[C@@]21C [Ethynylestradiol] | 0.03
9 | C[C@]12CC[C@H]3[C@@H](CCC4=CC(=O)CC[C@@]43C)[C@@H]1CC[C@@H]2O [Testosterone] | 0.28
10 | C[C@]12CCC(=O)C=C1CC[C@@H]1[C@@H]2[C@@H](O)C[C@]2(C=O)[C@@H](C(=O)CO)CC[C@@H]12 [d-ALDOSTERONE] | 0.00
11 | COc1cc2c(cc1O)CC[C@@H]1[C@@H]2CC[C@]2(C)[C@@H](O)CC[C@@H]12 [2-Methoxyestradiol] | 1.79
12 | CC[C@H](c1ccc(O)cc1)[C@@H](CC)c1ccc(O)cc1 [Hexestrol] | 0.00
13 | C[C@]12CCC(=O)C=C1CC[C@@H]1[C@@H]2CC[C@]2(C)C(=O)CC[C@@H]12 [(+)-4-Androsteron-3,17-dione] | 0.02
14 | CC12CCC3c4ccc(OC5OC(C(=O)O)C(O)C(O)C5O)cc4CCC3C1CCC2OS(=O)(=O)O (stereo not drawn) [β-Estradiol 3-glucronide 17-sulfate] | 0.02
15 | β-Estradiol 3-sulfate | 11.05
16 | C[C@]12CCC3c4ccc(OS(=O)(=O)O)cc4CCC3C1CC[C@@H]2OS(=O)(=O)O (stereo partly drawn) [β-Estradiol 3,7-disulfate] | 0.00

test system: not given; assay: not given; conditions: general statement on prior art; cited from earlier work

Row | Compound | solubility in water
17 | O=C(O)CCCC[C@@H]1SC[C@@H]2NC(=O)N[C@@H]21 [biotin] | minimally soluble in water

test system: antiserum RY469 (Rabbit antiserum prepared in Example 1-(2)); assay: ELISA system for estrone with biotinylated estradiol derivative 1 as labeled compound (standard curve, cross-reactivity test); type: binding; conditions: relative to estrone (calculated as 100%), labeled compound biotinylated estradiol derivative 1
Experimental: (2) An ELISA system for estrone using the derivative of the invention as a labeled compound was designed in the following manner.
Biotinylated estradiol derivative 1 of the invention
RY469 (Rabbit antiserum prepared in Example 1-(2)
(a) 100 μL of a standard solution or a sample is pipetted into each well of the 96-well plate, followed by addition of 50 μL of the labeled compound (0.25 ng/mL) comprising the biotinylated estradiol derivative of the invention and 50 μL of the antiserum (×32000);
(b) the reaction is allowed to proceed using a microplate shaker at room temperature for 5 hours;
as §1
(d) 100 μL of the HRP-labeled reagent (×5000) is added;
(e) the reaction is allowed to proceed using a microplate shaker at room temperature for 1 hour;
(f) all the wells are washed with the wash solution 4 times;
(g) 100 μL of the substrate is added;
(h) the reaction is allowed to proceed at 20° C. for 20 minutes;
(i) 100 μL of the enzyme reaction stop solution is pipetted into each well;
(j) absorbance at 450 nm is measured with a microplate autoreader.
The specifity of the estrone ELISA system was assessed in the following manner.
ELISA was repeated in a similar manner as in Example 3-(2) except that the estrogens shown in Table 2 were used in place of the standard estrone (Sigma Co.). The standard curve of each of the estrogens was obtained (see FIG. 6).

Row | Compound | Cross-reactivity (%)
18 | C[C@]12CC[C@@H]3c4ccc(O)cc4CC[C@H]3[C@@H]1CC[C@@H]2O [17β-Estradiol] | 33.33
19 | C[C@]12CC[C@@H]3c4ccc(O)cc4CC[C@H]3[C@@H]1C[C@@H](O)[C@@H]2O [Estriol] | 0.15
20 | Nonylphenol | <0.001
21 | Catechin | <0.001
22 | CC(C)(c1ccc(O)cc1)c1ccc(O)cc1 [Bisphenol A] | <0.001
23 | O=C(O[C@@H]1Cc2c(O)cc(O)cc2O[C@@H]1c1ccc(O)c(O)c1)c1cc(O)c(O)c(O)c1 [Epicatechin gallate] | <0.001
